Measurements reported in patent US7531320B2, “Modulation of β-catenin/TCF-activated transcription” (priority 2003, dated 2009).
Each block holds one compound with its values, some of them ahead of it.

Columns and labels:
[1] = system: nuclear β-catenin in SW480 cells; assay: β-catenin immunofluorescence and western blot localization in SW480 cells; format: cell-based, human; details: data not shown
Experimental: FIG. 4. COMPOUND 1 decreases nuclear β-catenin • A. β-catenin immunofluorescence microscopy. Log phase SW480 (left) and HCT116 (right) cells were fixed and stained with either anti-β-catenin red (upper panel, A) or anti-CBP (upper panel, B) green. The center panel represents the superimposed β-catenin and CBP in SW480 (left) and HCT116 (right) cells. […] 25 μg of total protein from the cell extracts of SW480 cells with or without 24 hr treatment of COMPOUND1 was used for detection of cytosolic and nuclear β-catenin.
Immunofluorescence was used to examine the localization of CBP and β-catenin in SW480 and HCT116 cells treated with COMPOUND 1 (25 μM) or control (0.5% DMSO). Cells at log phase were seeded and after 24 hours, the cells were treated with COMPOUND 1 or control. 24 hours post treatment, cells were fixed. The coverslips were incubated with antibodies raised against CBP (A-22) (Santa Cruz Biotechnology) and β-catenin (Transduction Laboratories), respectively. The slides were examined using a Nikon PCM 2000 Laser Scanning Confocal Microscope after the secondary antibodies conjugated to either FITC or TRITC (Jackson ImmunoResearch, Westgrove, Pa.) were applied.
The subcellular distribution of β-catenin and CBP was examined in order to determine whether the localization of either was affected by COMPOUND 1. […]

Min mouse = assay: Polyp number in Min mouse model; format: in vivo; details: for Polyp Number (Mean + S.D.), Colon / Polyp Number (Mean + S.D.), Small intestine / Polyp Number (Mean + S.D.), Total / % Inhibition vs. VH: Min mouse; for % Inhibition vs. VH: total polyp number vs. vehicle
Experimental: COMPOUND 4, COMPOUND 5, or vehicle was administrated in wild type and Min mice. COMPOUND 4 is also an analog of COMPOUND 1 (FIG. 1A). The numbers of polyp formed in small intestine and colon of these mice after various treatments were measured (Table 6).

HL60 = details: human
Experimental: (§1) Cytotoxicity of COMPOUND 3 (an analog of COMPOUND 1, FIG. 1A) and other anticancer therapeutics were measured using cancer cells with various origins.

293 = details: human
Experimental: as §1

MCF7 = details: human
Experimental: as §1

RPM17951 = details: human
Experimental: as §1

PC3 = details: human
Experimental: as §1

A549 = details: human
Experimental: as §1

p300 (1-111) = biological target: T1, p300 (1-111) (Homo sapiens, UniProt Q09472); assay: Pull-down of p300 deletion constructs on COMPOUND 2 coated beads, competition with excess COMPOUND 1; format: binding; details: E. coli expressed 6x-His protein, 100 μM COMPOUND 2
T1 construct: 6xHis (C); HSV tag (C); expressed in transfected cells
Experimental: FIG. 2. The first 111 amino acids of CBP, but not p300, specifically bind COMPOUND 1. • A. Schematic representation of the wild-type and deletion constructs for CBP. • B. CBP (1-111) contains the minimal binding domain of COMPOUND 1. Expression levels of CBP deletion constructs in SW480 cells are shown (upper panel). 10 μg of total protein was subjected to gel electrophoresis and subjected to immunoblotting using anti-His antibodies. Whole cell lysates of SW480 cells expressing CBP deletion constructs were bound to streptavidin-agarose beads coated with 100 μM of COMPOUND 2. The bound fractions were subjected to gel electrophoresis and immunoblotting using anti-His antibodies (lower panel). Arrows point to constructs which remained bound to COMPOUND 2 coated beads. • C. […] CBP deletion constructs, CBP(1-111),CBP (1-211), and CBP (1-351) and p300 deletion constructs, p300 (1-111), p300 (1-211), and p300 (1-351) were transfected into SW480 cells. Whole cell lysates were incubated with streptavidin-agarose beads or streptavidin-agarose beads coated with 100 μM COMPOUND 2 (lower panel). The binding of CBP constructs (1-111,1-211, and 1-351) and p300 constructs (1-111,1-211, and 1-351) to the beads was challenged with excess COMPOUND 1 (150 μM). • D. CBP (1-111) binds to COMPOUND 1 in a phosphorylation independent manner. […]

CBP = biological target: T2, CBP (Homo sapiens, UniProt Q92793); assay: COMPOUND 2 streptavidin-agarose affinity pull-down from SW480 nuclear extracts; format: binding; details: SW480 nuclear extract, immunoblotting with anti-CBP
T2 construct: endogenous in cells; host or cells: SW480 nuclear extract
Experimental: FIG. 1. COMPOUND 1 inhibits β-catenin/TCF transcription. • A(i) and A(ii). Structures of COMPOUND 1, COMPOUND 2, COMPOUND 3, COMPOUND 4, and COMPOUND 5. • B(i) and B(ii). […] SW480 cells (10^5), (FIG. 1B(i)), were transfected with β-catenin/TCF luciferase construct. Cells were treated with COMPOUND 1 (1-64 μM). 24 hours post treatment lysates were prepared and subjected to dual luciferase assay. The data is represented in different form in FIG. 1B(ii). • C. COMPOUND 1 has no effect on NFAT reporter construct. Stably transfected Jurkat cells, right panel, with an NFAT reporter construct, were stimulated with PMA (10 ng/ml)/lonomycin (1 μg/ml), and treated with COMPOUND 1 (0.781-50 μM). 24 hours post treatment lysates were prepared and subjected to dual luciferase assay. All experiments were performed in duplicate and the values plotted as means +/−standard deviation. • D. CBP is the molecular target of COMPOUND 1. Nuclear extracts of SW480 cells were incubated with streptavidin-agarose beads coated with COMPOUND 2 (25 μM). Beads were washed 3 times and the eluted were subjected to gel electrophoresis and immunoblotting, with anti-CBP antibodies. […] The lysates were desalted using G-25 1 cc columns (Pharmacia) to remove the unbound ^14C-labeled-COMPOUND 1, and ^14C-labeled-COMPOUND 1 incorporation was measured. […]

CBP (1-111) = biological target: T3, CBP (1-111) (Mus musculus, UniProt P45481); assay: Pull-down of CBP deletion constructs on COMPOUND 2 coated beads, competition with excess COMPOUND 1; format: binding; details: E. coli expressed 6x-His protein, 100 μM COMPOUND 2
T3 construct: 6xHis (C); HSV tag (C); expressed in transfected cells

SW480 cells = assay: Soft agar colony formation assay with SW480 cells; format: cell-based, human; details: Homo sapiens, 192 h, 5000 cells/well, colonies counted after 8 days

T1 sequence (Q09472 1-117): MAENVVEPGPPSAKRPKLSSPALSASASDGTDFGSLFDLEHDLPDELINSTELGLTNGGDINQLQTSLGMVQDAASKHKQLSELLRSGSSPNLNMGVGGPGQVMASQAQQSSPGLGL
T2 sequence (Q92793 whole entry): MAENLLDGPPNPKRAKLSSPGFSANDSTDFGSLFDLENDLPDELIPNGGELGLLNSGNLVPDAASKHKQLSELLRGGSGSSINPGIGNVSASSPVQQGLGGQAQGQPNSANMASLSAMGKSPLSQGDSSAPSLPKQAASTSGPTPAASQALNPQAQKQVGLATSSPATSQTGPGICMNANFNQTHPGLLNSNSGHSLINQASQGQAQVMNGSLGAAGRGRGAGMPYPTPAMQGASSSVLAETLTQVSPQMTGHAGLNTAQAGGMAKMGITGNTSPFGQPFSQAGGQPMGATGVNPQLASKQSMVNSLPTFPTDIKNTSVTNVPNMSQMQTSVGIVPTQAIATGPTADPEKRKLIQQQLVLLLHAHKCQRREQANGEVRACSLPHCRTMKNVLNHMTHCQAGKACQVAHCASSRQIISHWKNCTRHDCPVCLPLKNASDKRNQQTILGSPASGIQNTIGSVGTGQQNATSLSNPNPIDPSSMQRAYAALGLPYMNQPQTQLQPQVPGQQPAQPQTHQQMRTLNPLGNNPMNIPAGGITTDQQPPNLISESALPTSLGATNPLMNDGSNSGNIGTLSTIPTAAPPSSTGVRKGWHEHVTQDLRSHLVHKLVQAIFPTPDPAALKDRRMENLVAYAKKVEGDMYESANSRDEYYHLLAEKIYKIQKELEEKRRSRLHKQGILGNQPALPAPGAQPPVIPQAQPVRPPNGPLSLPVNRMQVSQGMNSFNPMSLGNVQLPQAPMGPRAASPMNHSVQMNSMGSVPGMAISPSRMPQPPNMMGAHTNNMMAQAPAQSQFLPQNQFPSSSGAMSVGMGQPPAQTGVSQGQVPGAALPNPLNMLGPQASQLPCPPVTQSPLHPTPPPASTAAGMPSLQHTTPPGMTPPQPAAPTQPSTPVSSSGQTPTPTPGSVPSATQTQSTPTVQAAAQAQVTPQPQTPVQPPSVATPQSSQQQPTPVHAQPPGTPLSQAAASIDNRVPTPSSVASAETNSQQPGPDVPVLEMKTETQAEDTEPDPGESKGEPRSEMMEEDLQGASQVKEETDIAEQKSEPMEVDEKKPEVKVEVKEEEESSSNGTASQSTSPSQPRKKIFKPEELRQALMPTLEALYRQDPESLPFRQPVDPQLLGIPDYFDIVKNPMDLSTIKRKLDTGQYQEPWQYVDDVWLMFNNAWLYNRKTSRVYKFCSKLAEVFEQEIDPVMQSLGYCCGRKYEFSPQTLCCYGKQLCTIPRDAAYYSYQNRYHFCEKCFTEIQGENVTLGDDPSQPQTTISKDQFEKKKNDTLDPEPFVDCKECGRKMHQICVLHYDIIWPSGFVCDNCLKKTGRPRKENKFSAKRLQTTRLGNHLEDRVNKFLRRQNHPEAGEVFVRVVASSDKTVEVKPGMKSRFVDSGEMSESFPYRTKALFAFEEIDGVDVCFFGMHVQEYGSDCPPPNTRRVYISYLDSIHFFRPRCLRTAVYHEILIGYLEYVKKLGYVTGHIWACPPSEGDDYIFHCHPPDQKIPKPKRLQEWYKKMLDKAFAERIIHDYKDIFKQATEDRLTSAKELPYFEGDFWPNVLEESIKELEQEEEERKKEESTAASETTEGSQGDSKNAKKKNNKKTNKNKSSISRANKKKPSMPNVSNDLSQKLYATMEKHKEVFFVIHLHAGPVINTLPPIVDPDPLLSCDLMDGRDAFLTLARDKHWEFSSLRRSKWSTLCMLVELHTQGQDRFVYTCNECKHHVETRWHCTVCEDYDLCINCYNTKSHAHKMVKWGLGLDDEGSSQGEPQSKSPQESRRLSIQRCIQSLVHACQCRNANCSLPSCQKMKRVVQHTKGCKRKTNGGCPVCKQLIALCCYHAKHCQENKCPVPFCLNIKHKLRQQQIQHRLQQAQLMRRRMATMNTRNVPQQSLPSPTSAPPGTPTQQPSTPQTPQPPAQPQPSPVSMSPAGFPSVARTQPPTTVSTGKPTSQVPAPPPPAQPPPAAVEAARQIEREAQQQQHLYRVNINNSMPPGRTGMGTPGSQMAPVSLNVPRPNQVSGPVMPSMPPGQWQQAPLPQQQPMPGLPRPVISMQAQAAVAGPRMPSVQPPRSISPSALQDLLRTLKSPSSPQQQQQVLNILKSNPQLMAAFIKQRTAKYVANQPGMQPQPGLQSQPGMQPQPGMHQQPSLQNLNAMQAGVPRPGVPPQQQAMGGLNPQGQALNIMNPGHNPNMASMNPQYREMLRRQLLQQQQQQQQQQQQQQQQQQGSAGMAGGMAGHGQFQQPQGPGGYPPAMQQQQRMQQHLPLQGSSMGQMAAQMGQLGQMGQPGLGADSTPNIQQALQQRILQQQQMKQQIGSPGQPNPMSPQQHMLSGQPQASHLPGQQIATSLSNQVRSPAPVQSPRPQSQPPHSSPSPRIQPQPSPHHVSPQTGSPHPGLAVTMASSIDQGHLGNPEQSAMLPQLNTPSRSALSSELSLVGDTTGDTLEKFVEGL
T3 sequence (P45481 1-110): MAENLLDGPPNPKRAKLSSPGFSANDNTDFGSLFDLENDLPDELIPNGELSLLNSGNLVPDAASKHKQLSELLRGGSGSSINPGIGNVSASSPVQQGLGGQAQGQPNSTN

SMILES: CCC(=C/[C@H](C)C/C=C/C(C)=C/[C@@H](C)C(=O)[C@@H](C)[C@H](O)[C@@H](C)C/C(C)=C/C(=O)O)/C=C/[C@@H]1OC(=O)C=C[C@@H]1C [leptomycin B, reference compound]
Effect of nuclear transport inhibitor on COMPOUND 1-induced β-catenin transport [1]: eliminated COMPOUND 1-induced cytoplasmic transport of β-catenin

SMILES: CN1CC(=O)N2C(Cc3ccc(O)cc3)C(=O)N(Cc3cccc4cccnc34)CC2N1C(=O)NCc1ccccc1 (centres unmarked) [COMPOUND 4]
Effect on number of polyp compared to vehicle control (Min mouse; Min mice, about 300 mpk): reduce the number of polyp
Polyp Number (Mean + S.D.), Colon (Min mouse; 300 mpk): 1.4 ± 0.9
Polyp Number (Mean + S.D.), Small intestine (Min mouse; 300 mpk): 45.2 ± 22.1
Polyp Number (Mean + S.D.), Total (Min mouse; 300 mpk): 46.8 ± 17.0
% Inhibition vs. VH (Min mouse; 300 mpk): 31%

SMILES: CC1=C(CC(=O)O)c2cc(F)ccc2/C1=C\c1ccc([S+](C)[O-])cc1 (centres unmarked) [Sulindac, reference compound]
Polyp Number (Mean + S.D.), Colon (Min mouse; 160 ppm): 0.5 ± 0.5
Polyp Number (Mean + S.D.), Small intestine (Min mouse; 160 ppm): 48.0 ± 20.7
Polyp Number (Mean + S.D.), Total (Min mouse; 160 ppm): 48.5 ± 20.9
% Inhibition vs. VH (Min mouse; 160 ppm): 28%

SMILES: COc1cccc2c1C(=O)c1c(O)c3c(c(O)c1C2=O)C[C@@](O)(C(=O)CO)C[C@@H]3O[C@H]1C[C@H](N)[C@H](O)[C@H](C)O1 [ADR, adriamycin]
Cytotoxicity (HL60): 0.086 µg/mL
Cytotoxicity 293: <0.03 µg/mL
Cytotoxicity (MCF7): 1.424 µg/mL
Cytotoxicity (RPM17951): 0.171 µg/mL
Cytotoxicity (PC3): 0.267 µg/mL
Cytotoxicity (A549): 0.117 µg/mL

Binding of purified p300 (1-111) to COMPOUND 2 beads (p300 (1-111)): not p300 (1-111)
Binding of purified CBP (1-111) to COMPOUND 2 beads (CBP (1-111)): specific binding
SMILES: O=C(CCCCCNC(=O)CCCCC1SCC2NC(=O)NC21)NCCCCCC(=O)NCc1cccc(CNC(=O)N2CCC(=O)N3C(Cc4ccc(O)cc4)C(=O)N(Cc4cccc5ccccc45)CC23)c1 (centres unmarked) [COMPOUND 2]
Major band retained on COMPOUND 2 affinity column (CBP): identified by immunoblotting as the CREB Binding Protein (CBP)

IC50 (SW480 cells): 1980 ± 170 nM
SMILES: O=c1[nH]cc(F)c(=O)[nH]1 [5-FU, 5-fluorouracil]
Cytotoxicity (HL60): 7.010 µg/mL
Cytotoxicity 293: 2.015 µg/mL
Cytotoxicity (MCF7): 1.751 µg/mL
Cytotoxicity (RPM17951): 0.920 µg/mL
Cytotoxicity (PC3): >10 µg/mL
Cytotoxicity (A549): 1.007 µg/mL
